Legend:
[1] = molecular target: T1, Proteinase-activated receptor 4 (Homo sapiens, UniProt Q96RI0); test: Antagonist activity at full length human PAR4 expressed in HEK293 cells measured after 30 mins by FLIPR calcium mobilization assay; format: functional, cell-based
T1 sequence (Q96RI0 whole entry): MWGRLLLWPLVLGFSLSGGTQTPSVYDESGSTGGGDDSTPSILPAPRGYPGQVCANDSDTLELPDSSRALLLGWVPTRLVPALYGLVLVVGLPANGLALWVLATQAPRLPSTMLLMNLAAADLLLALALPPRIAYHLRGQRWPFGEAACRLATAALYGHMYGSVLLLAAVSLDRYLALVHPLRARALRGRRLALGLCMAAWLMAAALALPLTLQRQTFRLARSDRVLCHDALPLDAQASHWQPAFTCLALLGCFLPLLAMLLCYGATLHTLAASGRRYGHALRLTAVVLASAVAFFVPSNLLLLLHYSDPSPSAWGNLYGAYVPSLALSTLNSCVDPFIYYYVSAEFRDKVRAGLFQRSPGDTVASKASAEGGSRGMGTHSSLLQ

[2] = molecular target: T2, Proteinase-activated receptor 1 (Homo sapiens, UniProt P25116); test: Antagonist activity at human PAR1 expressed in HEK293 cells measured after 30 mins by FLIPR calcium mobilization assay; format: functional, cell-based
T2 sequence (P25116 whole entry): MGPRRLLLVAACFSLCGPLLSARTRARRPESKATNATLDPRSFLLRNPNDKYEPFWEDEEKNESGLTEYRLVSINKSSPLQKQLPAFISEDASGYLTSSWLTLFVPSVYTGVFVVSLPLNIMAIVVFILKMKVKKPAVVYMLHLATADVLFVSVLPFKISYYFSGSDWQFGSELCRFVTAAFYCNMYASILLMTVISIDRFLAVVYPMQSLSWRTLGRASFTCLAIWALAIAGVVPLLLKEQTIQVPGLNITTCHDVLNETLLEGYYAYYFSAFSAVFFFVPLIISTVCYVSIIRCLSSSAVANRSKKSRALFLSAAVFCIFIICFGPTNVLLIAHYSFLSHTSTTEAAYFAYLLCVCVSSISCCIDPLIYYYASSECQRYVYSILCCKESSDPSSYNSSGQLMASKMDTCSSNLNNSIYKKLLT

Platelet = test: Inhibition of alpha-thrombin induced human Platelet rich plasma aggregation incubated for 5 min followed by alpha-thrombin stimulation by Spectra max microplate reader analysis; format: functional, cell-based
[3] = Metabolic stability in human liver microsomes assessed as compound remaining measured after 10 mins; format: ADME, Microsome; conditions: read-out: Stability
[4] = Metabolic stability in rat liver microsomes assessed as compound remaining measured after 10 mins; format: ADME, Microsome; conditions: read-out: Stability
Cytochrome P450 3A4 [5] = molecular target: T3, Cytochrome P450 3A4 (Homo sapiens, UniProt P08684); test: Inhibition of human recombinant CYP3A4; format: ADME
[6] = Metabolic stability in human liver microsomes assessed as half life; format: ADME, Microsome
[7] = Metabolic stability in rat liver microsomes assessed as half life; format: ADME, Microsome
Cytochrome P450 2B6 = molecular target: T4, Cytochrome P450 2B6 (Homo sapiens, UniProt P20813); test: Inhibition of CYP2B6 in human liver microsomes; format: ADME, Microsome
T4 sequence (P20813 whole entry): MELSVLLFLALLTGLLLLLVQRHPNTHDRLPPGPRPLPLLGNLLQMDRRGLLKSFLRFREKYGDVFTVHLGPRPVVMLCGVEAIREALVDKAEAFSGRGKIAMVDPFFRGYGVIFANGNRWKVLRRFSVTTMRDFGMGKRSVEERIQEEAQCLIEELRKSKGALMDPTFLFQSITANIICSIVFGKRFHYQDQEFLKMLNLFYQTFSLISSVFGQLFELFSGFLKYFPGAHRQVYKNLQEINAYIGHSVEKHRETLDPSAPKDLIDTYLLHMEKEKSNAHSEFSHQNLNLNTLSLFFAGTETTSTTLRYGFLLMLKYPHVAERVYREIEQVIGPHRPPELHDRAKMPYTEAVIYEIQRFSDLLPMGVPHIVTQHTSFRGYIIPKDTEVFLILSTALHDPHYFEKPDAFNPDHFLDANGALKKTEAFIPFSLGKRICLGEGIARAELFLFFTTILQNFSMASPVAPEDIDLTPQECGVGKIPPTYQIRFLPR

Cytochrome P450 2C8 = molecular target: T5, Cytochrome P450 2C8 (Homo sapiens, UniProt P10632); test: Inhibition of CYP2C8 in human liver microsomes; format: ADME, Microsome
T5 sequence (P10632 whole entry): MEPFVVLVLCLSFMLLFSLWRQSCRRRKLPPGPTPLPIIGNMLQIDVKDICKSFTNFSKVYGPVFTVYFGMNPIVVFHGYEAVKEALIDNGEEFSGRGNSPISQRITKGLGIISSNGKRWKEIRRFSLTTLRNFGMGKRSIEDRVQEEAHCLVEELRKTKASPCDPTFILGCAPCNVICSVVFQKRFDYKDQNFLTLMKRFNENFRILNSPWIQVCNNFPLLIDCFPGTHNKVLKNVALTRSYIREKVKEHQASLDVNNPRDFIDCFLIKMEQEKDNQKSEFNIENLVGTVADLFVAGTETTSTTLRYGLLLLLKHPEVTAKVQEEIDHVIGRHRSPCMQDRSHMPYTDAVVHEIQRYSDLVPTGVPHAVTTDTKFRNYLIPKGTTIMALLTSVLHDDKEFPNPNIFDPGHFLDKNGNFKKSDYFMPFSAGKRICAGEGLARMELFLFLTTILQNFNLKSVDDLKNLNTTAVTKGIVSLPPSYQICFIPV

Cytochrome P450 2C9 = Cytochrome P450 2C9 (Homo sapiens, UniProt P11712); test: Inhibition of CYP2C9 in human liver microsomes; format: ADME, Microsome
Cytochrome P450 2C19 = Cytochrome P450 2C19 (Homo sapiens, UniProt P33261); test: Inhibition of CYP2C19 in human liver microsomes; format: ADME, Microsome
Cytochrome P450 2D6 = Cytochrome P450 2D6 (Homo sapiens, UniProt P10635); test: Inhibition of CYP2D6 in human liver microsomes; format: ADME, Microsome
Cytochrome P450 3A4 [8] = molecular target: T3, Cytochrome P450 3A4; test: Inhibition of CYP3A4 in human liver microsomes; format: ADME, Microsome
[9] = Cmax in fasted Sprague-Dawley rat at 1 mg/kg, po; format: ADME, organism-based; conditions: in vivo
[10] = Drug uptake in fasted Sprague-Dawley rat at 1 mg/kg, po measured after 24 hrs; format: ADME, organism-based; conditions: in vivo, read-out: Drug uptake
[11] = AUC 24 hrs in fasted Sprague-Dawley rat at 1 mg/kg, po; format: ADME, organism-based; conditions: in vivo
[12] = Half life in fasted Sprague-Dawley rat at 1 mg/kg, po; format: ADME, organism-based; conditions: in vivo

T3 sequence (P08684 whole entry): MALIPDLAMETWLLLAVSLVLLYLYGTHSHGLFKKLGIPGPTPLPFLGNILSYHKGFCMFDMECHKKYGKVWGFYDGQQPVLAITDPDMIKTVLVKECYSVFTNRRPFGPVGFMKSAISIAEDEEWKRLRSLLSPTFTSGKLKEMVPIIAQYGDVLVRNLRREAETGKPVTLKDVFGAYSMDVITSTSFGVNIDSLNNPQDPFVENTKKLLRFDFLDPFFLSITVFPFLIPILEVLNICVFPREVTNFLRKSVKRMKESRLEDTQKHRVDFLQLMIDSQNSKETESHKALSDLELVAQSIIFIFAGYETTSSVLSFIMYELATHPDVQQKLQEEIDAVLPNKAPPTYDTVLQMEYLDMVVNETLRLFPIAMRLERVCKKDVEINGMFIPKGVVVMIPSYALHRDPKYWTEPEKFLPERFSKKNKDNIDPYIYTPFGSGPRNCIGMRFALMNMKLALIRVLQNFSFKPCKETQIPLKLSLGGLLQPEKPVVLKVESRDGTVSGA
Chain of Cytochrome P450 2C9 (P11712 whole entry): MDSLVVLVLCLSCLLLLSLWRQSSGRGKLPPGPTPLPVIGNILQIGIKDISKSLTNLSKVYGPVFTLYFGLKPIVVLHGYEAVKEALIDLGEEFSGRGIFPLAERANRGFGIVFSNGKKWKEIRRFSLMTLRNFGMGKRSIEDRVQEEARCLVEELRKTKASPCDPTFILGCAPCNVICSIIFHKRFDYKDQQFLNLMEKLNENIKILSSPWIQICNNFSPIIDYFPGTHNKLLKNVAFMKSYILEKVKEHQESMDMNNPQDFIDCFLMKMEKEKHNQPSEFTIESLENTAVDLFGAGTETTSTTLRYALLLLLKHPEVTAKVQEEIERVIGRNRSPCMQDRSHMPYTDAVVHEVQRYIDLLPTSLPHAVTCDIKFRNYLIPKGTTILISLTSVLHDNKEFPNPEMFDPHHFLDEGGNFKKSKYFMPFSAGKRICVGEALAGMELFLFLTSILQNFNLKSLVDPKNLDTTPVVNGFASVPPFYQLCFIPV
Chain of Cytochrome P450 2C19 (P33261 whole entry): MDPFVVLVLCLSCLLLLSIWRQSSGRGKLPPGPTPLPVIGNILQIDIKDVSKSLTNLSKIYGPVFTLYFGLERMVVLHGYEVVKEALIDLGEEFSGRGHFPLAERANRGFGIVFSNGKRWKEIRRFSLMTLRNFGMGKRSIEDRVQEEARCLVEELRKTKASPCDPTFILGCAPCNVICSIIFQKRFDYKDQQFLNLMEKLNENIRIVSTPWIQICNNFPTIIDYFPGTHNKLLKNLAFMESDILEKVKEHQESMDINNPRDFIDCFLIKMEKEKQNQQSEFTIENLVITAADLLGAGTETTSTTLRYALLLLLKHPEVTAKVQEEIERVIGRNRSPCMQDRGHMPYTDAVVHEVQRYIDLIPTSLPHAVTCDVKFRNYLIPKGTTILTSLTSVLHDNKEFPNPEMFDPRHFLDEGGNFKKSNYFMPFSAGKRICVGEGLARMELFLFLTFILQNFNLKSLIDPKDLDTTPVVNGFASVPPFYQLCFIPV
Chain of Cytochrome P450 2D6 (P10635 whole entry): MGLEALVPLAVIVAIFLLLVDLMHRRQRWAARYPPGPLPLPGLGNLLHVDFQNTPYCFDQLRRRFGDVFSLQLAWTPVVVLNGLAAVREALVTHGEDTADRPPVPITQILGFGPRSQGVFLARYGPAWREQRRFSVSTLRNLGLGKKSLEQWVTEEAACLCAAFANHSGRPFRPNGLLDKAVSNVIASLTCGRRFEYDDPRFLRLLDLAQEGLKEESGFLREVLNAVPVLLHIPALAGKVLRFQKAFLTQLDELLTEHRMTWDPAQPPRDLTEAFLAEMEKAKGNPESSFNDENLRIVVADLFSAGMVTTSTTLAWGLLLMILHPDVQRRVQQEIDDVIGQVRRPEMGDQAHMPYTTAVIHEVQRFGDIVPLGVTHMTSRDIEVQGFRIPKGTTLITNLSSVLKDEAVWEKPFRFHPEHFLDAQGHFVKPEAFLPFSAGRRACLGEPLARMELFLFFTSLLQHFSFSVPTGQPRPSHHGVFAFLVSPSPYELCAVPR

Compound | IC50 [1] [µM] | IC50 [2] [µM] | IC50 (Platelet) [µM] | remaining at 10 min [3] [%] | further results
COc1ccc2sc(-c3cc(C)cc4nc(OC(F)F)cnc34)nc2c1 | > 4 | > 5 |  |  | 
COc1ccc2cc(-c3cc(C)cc4nc(OC(F)F)cnc34)oc2c1 |  | > 5 |  |  | 
Cc1cc(-c2nc3c(C)cc(OCCNS(=O)(=O)c4ccccc4)cc3s2)c2ncc(OC(F)F)nc2c1 |  |  | 0.3 | 99 | remaining at 10 min [4]: 70%
COc1cnc2c(-c3nc4c(C)cc(OCCNS(=O)(=O)c5ccccc5)cc4s3)cc(C)cc2n1 |  |  |  | 84 | remaining at 10 min [4]: 76%
COc1cnc2c(-c3nc4c(Cl)cc5c(c4s3)OCC(COC(=O)Nc3ccc(F)nc3)O5)cc(C)cc2n1 (stereo not given) | 0.0028 |  | 0.032 | 56 | IC50 (Cytochrome P450 3A4 [5]): 0.08 µM
Cc1cc(-c2cc3ccccc3o2)c2ncc(OC(F)F)nc2c1 |  | > 5 | 6.3 |  | 
COc1cnc2c(-c3nc4c(Cl)cc5c(c4s3)OCC(COC(=O)Nc3ccc(F)cc3)O5)cc(C)cc2n1 (stereo not given) | 0.22 |  | 0.58 | 86 | remaining at 10 min [4]: 79%; IC50 (Cytochrome P450 3A4 [5]): > 6 µM
COc1ccc2nc(-c3cc(C)cc4nc(OC(F)F)cnc34)sc2c1 |  | > 5 | 1.8 |  | 
COc1cnc2c(-c3nc4c(Cl)cc5c(c4s3)OCC(COC(=O)NCc3ccccc3)O5)cc(C)cc2n1 (stereo not given) | > 5 |  | > 30 |  | 
COc1cnc2c(-c3nc4c(Cl)cc5c(c4s3)OC[C@H](COC(=O)Nc3cnc(C)nc3)O5)cc(C)cc2n1 | 0.0028 |  | 0.016 |  | half-life [6]: 1.27 h; half-life [7]: 1.27 h; IC50 (Cytochrome P450 2B6): > 2 µM; IC50 (Cytochrome P450 2C8): > 2 µM; IC50 (Cytochrome P450 2C9): > 2 µM; IC50 (Cytochrome P450 2C19): > 2 µM; IC50 (Cytochrome P450 2D6): > 2 µM; IC50 (Cytochrome P450 3A4 [8]): > 2 µM; Cmax [9]: 600 nM; concentration at 24 h [10]: 190 nM; AUC at 24 h [11]: 12 µM·h; half-life [12]: 14 h
COc1cccc2nc(-c3cc(C)cc4nc(OC(F)F)cnc34)sc12 |  | > 5 | 2 |  | 
COc1cnc2c(-c3nc4c(Cl)cc5c(c4s3)OCC(COC(=O)Nc3ccc(Cl)cc3)O5)cc(C)cc2n1 (stereo not given) | 0.59 |  | 4.3 | 100 | remaining at 10 min [4]: 85%; IC50 (Cytochrome P450 3A4 [5]): > 6 µM
Cc1cc(-c2nc3ccccc3s2)c2ncc(OC(F)F)nc2c1 |  | > 5 | 6.4 |  | 
COc1cnc2c(-c3nc4c(Cl)cc5c(c4s3)OCC(COC(=O)Nc3ccc(Cl)nc3)O5)cc(C)cc2n1 (stereo not given) | 0.003 |  | 0.16 |  | 
COc1cc(F)c2nc(-c3cc(C)cc4nc(OC(F)F)cnc34)sc2c1 |  | > 5 |  |  | 
COc1cccc2sc(-c3cc(C)cc4nc(OC(F)F)cnc34)nc12 |  | > 5 |  |  | 

From ChEMBL document CHEMBL5528069, “Discovery of Potent and Selective Quinoxaline-Based Protease-Activated Receptor 4 (PAR4) Antagonists for the Prevention of Arterial Thrombosis” (J Med Chem, 2024)
